Experimental findings from ChEMBL document CHEMBL6182926, “Design, Synthesis, and Biological Activity Evaluation of Deuterated Diphenyl Azole Alcohol-Based CYP51 Inhibitors” (J Med Chem, 2025) are described below.

One experiment deals with Candida tropicalis. The experiment is described as follows: Antifungal activity against Candida tropicalis CGMCC 2.3739 assessed as inhibition of visible growth. It counts as functional.
The subject of another experiment is Cryptococcus neoformans. The experiment is described as follows: Antifungal activity against Cryptococcus neoformans CGMCC 2.3161 assessed as reduction in 14alpha-methylsterols at 0.125 ug/ml measured after 18 hrs incubation by gas chromatography-mass spectrometry (GCMS) analysis (reference value: 2.32%). It counts as functional. Also noted: scale not given: the % may be the effect or the level left. The conditions noted are these: dose 0.125 µg/ml.

≈ marks a conversion by molar mass, not a printed value.

Take `[2H]C([2H])([2H])N(Cc1ccc(-c2ccc(OC(F)(F)F)cc2)cc1)[C@H](C)[C@](O)(Cn1cncn1)c1ccc(F)cc1F`: the MIC80 in the experiment with Candida tropicalis worked out at 6 ng/mL (≈ 0.0112 µM). Moreover, in the experiment with Cryptococcus neoformans, the Activity came out at 3.21%.

For orientation: MIC80 means an inhibitory concentration at the 80% level, which refers to growth in some studies and to a panel of isolates in others.
